Source: PMC6006285, “Specific stereochemistry of OP-1074 disrupts estrogen receptor alpha helix 12 and confers pure antiestrogenic activity” (Nature Communications, 2018)

Experiments:
[1] = molecular target: T1, B-isoform of the progesterone receptor (PR-B) (Homo sapiens, UniProt P06401); assay: PRE3X-TATA-Luc reporter in HeLa cells transfected with PR-B; format: cell-based; details: alone or + 500 nM MPA, 22 h
T1 construct: HeLa cells were transfected as above but also with plasmids for full length wild; expressed in transfected cells; host or cells: HeLa
T1 sequence (P06401 1-933): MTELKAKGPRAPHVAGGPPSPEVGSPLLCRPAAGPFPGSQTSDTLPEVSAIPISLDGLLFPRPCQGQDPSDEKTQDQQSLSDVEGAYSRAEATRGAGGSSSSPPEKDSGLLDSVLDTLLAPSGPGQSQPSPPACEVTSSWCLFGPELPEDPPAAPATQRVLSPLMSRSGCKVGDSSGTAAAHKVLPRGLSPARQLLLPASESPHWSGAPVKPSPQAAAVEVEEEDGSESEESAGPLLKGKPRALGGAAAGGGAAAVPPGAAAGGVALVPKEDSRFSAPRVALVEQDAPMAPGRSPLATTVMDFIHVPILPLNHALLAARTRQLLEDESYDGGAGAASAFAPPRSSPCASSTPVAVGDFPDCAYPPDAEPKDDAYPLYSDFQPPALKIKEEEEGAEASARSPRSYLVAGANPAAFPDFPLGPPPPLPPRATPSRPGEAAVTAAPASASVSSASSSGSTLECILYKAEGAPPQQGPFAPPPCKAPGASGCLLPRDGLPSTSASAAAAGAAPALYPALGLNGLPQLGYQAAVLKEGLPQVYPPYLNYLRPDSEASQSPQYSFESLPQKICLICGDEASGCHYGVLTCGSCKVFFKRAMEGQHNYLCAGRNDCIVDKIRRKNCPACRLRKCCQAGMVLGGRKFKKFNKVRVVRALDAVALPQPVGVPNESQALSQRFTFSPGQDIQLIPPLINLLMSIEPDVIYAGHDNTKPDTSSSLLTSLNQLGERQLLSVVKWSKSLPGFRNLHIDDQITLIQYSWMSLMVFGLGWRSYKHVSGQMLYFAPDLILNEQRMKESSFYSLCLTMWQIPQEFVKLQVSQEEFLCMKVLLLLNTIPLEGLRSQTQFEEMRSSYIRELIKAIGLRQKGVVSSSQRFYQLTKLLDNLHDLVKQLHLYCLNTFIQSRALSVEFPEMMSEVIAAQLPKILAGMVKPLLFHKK
Procedure: representative experiment. […]
receptor (AR, (B)), glucocorticoid receptor (GR, (C)), and the B-isoform of the progesterone receptor (PR-B, (D)). HeLa cells were transfected with the designated wild type receptor along with reporter gene PRE3X-TATA-Luc, which is promiscuously activated with known agonists specific for each receptor: R1881 for AR, dexamethasone (Dex) for GR, and medroxyprogesterone acetate (MPA) for PR-B. Each receptor was also dosed with one concentration of known antagonist for each receptor: 32 nM bicalutamide for AR, and 500 nM RU486 for GR and PR. Transfected cells were treated with the designated ligands for 22 hours and luciferase activity assayed. Shown are representative experiments, independently performed at least 3 times. Note that curves for agonists for each receptor were performed in separate experiments. Shown are means with SEM, normalized to percent of 32 nM R1881 for AR, 32 nM Dex for GR, and 0.5 µM MPA for PR-B (except with MPA alone, which was normalized to […]
either ERα or ERβ, and 85 ng ERE-3x-Luc, containing 3 copies of estrogen-response element (ERE) cloned into pGL4.23 luciferase reporter gene containing a minimal TATA promoter […]
hours (1.25% total final charcoal dextran stripped FBS). Bright Glo luciferase reagent (Promega) […]

MCF7/HER2/neu tumors = system: MCF7/HER2/neu tumors
Procedure: MCF7/HER2/neu cells were grown in culture and implanted into 6–7 week athymic ovariectomized female nu/nu mice (Taconic Biosciences). To stimulate tumor growth, 0.18 mg estradiol 90 day release pellets (Innovative Research) were implanted along with cells. […] Tumor volume and bodyweight were measured twice weekly. At end of the study animals were euthanized, tumors resected and snap frozen in liquid nitrogen, and uteri were resected, weighed, and fixed in 10% formalin.

[2] = system: AP activity in Ishikawa uterine cells; assay: Alkaline phosphatase (AP) assay, agonist mode (absence of E2); format: cell-based, human
Procedure: Our primary screen to distinguish pure antiestrogens from SERMs was induction of alkaline phosphatase (AP) activity in Ishikawa uterine cells. […] The reference SERM used in our screen was endoxifen (N-desmethyl-4-hydroxytamoxifen), the most abundant bioactive metabolite of tamoxifen.
Shown is a representative figure analyzed and presented as above.
At least 4 h later cells were treated with antiestrogens and media was diluted to 2.5% stripped FBS. Cells were incubated for 3 days, media removed and plates frozen at −80 °C. Thawed plates were incubated with a chromogenic substrate of AP, p-nitrophenyl phosphate (ThermoFisher Scientific, #36721), for 40–60 min at 40 °C, and absorbance read at 405 nm on the Varioskan Lux multimodal plate reader (ThermoFisher Scientific, #VLBL00D0).

[3] = number of 10 tumors at end of study, OP-1074 100 mg/kg oral twice daily, fulvestrant 100 mg/kg subcutaneous daily

For `CC1=C(c2ccc(O)cc2)[C@H](c2ccc(OCCN3CC[C@@H](C)C3)cc2)Oc2cc(O)ccc21` [OP-1074], the “Agonist and antagonist activity on PR-B” value [1] was “lacks agonist and antagonist activity”, the Tolerability (MCF7/HER2/neu tumors; nude mice, 100 mg/kg dosed twice a day by oral gavage) was “well-tolerated with no adverse effects on behavior or mouse bodyweight” and the “Tumors shrunk / growth inhibited by >50%” value (MCF7/HER2/neu tumors; [3]) was “all ten”. The “Tumors shrunk >80%” value (MCF7/HER2/neu tumors; [3]) was 9/10, the “Maximal AP activity in agonist mode relative to E2 control” value ([2]; 3 days, absence of E2, normalized to 500 pM E2, representative experiment (Fig. 2a)) was 8% and the “Induction of AP activity (% E2)” value ([2]; Maximum AP activity observed relative to positive control, 500 pM E2, means of n independent experiments ±s.d.) was 10% ± 4.4 (n = 29) % E2.
